Eleven compounds from patent US20220048895A1, “SUBSTITUTED BENZAZEPINE COMPOUNDS, CONJUGATES, AND USES THEREOF” (SILVERBACK THERAPEUTICS, INC., priority 2018, published 2022) can be followed below.

Structures are written as SMILES.

The assay has as its system Human peripheral blood mononuclear cells (PBMC). The assay can be described thus: PBMC screening assay: TNF-α in supernatant by ELISA or HTRF. The assay is classed as cell-based. The note with it: TNF-α activity in supernatant of human PBMC, 24 hours incubation, 1000 to 0.000238 nM. As to the method:
Materials and general procedures. Human peripheral blood mononuclear cells (PBMC) were obtained from BenTek, frozen at 25×10^6 cell/mL in 10% DMSO (Sigma) prepared in fetal bovine serum (Gibco) and stored in liquid nitrogen. For the culture, PBMC were thawed quickly in a 37° C. water bath and diluted into pre-warmed RPMI 1640 (Lonza) supplemented with 10% fetal bovine serum, 2 mM glutamine, […] (all from Gibco) and centrifuged for 5 minutes at 500×g. PBMC were suspended into the growth media described above and cultured at a concentration of 1×10^6 cells per mL at 37° C. in a 5% CO2 incubator.
General procedure for in vitro small molecule screening. PBMC were thawed, suspended at a concentration of 1×10^6 cell/mL in growth media and 200 μL was aliquoted into each well of a 96-well plate for a total of 0.2×10^6 cells per well. PBMC were incubated for approximately 16-18 hours at 37° C. in a 5% CO2 humidified incubator. PBMC plates were centrifuged at 500×g for 5 minutes and the growth media was removed. 150 μL of twelve concentrations ranging from 1000 to 0.000238 nM of small molecules prepared in growth media were added to PBMC in duplicate and incubated for 24 hours at 37° C. in a 5% CO2 incubator. Prior to supernatant harvest, cells were spun at 500×g for 5 minutes to remove cell debris. TNF-α activity was assessed in the supernatant by ELISA (eBioscience) or HTRF (CisBio) per the manufacturer's instructions. The optical density at 450 nm and 570 nm (ELISA) or […] (HTRF) was analyzed using an Envision (Perkin Elmer) plate reader, as shown in Table 2.
Consider `CCCN(CCC)C(=O)C1=Cc2ccc(-c3ccc(C(=O)N4CCNC(c5ccccc5)C4)cc3)cc2N=C(N)C1` (centres unmarked) [Compound 1.1, 2-amino-8-(4-(3-phenylpiperazine-1-carbonyl)phenyl)-N,N-dipropyl-3H-benzo[b]azepine-4-carboxamide], for which the EC50 was < 50 nM.
Next, `CCCN(CCC)C(=O)C1=Cc2ccc(-c3ccc(C(=O)N4CCN[C@H](c5ccccc5)C4)cc3)cc2N=C(N)C1` [Compound 1.2, (R)-2-amino-8-(4-(3-phenylpiperazine-1-carbonyl)phenyl)-N,N-dipropyl-3H-benzo[b]azepine-4-carboxamide]: < 50 nM; `CCCN(CCC)C(=O)C1=Cc2ccc(-c3ccc(C(=O)N4CCN[C@@H](c5ccccc5)C4)cc3)cc2N=C(N)C1` [Compound 1.3, (S)-2-amino-8-(4-(3-phenylpiperazine-1-carbonyl)phenyl)-N,N-dipropyl-3H-benzo[b]azepine-4-carboxamide]: < 50 nM; `CCCN(CCC)C(=O)C1=Cc2ccc(-c3ccc(C(=O)N4CCN(c5ccccc5)CC4)cc3)cc2N=C(N)C1` [Compound 1.4, 2-amino-8-(4-(4-phenylpiperazine-1-carbonyl)phenyl)-N,N-dipropyl-3H-benzo[b]azepine-4-carboxamide]: 50 to 500 nM.
Next, `CCCN(CCC)C(=O)C1=Cc2ccc(-c3ccc(C(=O)N4CCC(O)(c5ccccc5)CC4)cc3)cc2N=C(N)C1` [Compound 1.5, 2-amino-8-(4-(4-hydroxy-4-phenylpiperidine-1-carbonyl)phenyl)-N,N-dipropyl-3H-benzo[b]azepine-4-carboxamide]: 50 to 500 nM.
`CCCN(CCC)C(=O)C1=Cc2ccc(-c3ccc(C(=O)N4CCCC(CO)C4)cc3)cc2N=C(N)C1` (centres unmarked) [Compound 1.6, 2-amino-8-(4-(3-(hydroxymethyl)piperidine-1-carbonyl)phenyl)-N,N-dipropyl-3H-benzo[b]azepine-4-carboxamide]: the EC50 was 50 to 500 nM.
Next, `CCCN(CCC)C(=O)C1=Cc2ccc(-c3ccc(C(=O)N4CCC(CO)(c5ccccc5)CC4)cc3)cc2N=C(N)C1` [Compound 1.7, 2-amino-8-(4-(4-(hydroxymethyl)-4-phenylpiperidine-1-carbonyl)phenyl)-N,N-dipropyl-3H-benzo[b]azepine-4-carboxamide]: > 500 nM; `CCCN(CCC)C(=O)C1=Cc2ccc(-c3ccc(C(=O)N4CCc5ccccc5C4)cc3)cc2N=C(N)C1` [Compound 1.8, 2-amino-N,N-dipropyl-8-(4-(1,2,3,4-tetrahydroisoquinoline-2-carbonyl)phenyl)-3H-benzo[b]azepine-4-carboxamide]: > 500 nM.
Under `CCCN(CCC)C(=O)C1=Cc2ccc(-c3ccc(C(=O)N4CCC(O)(c5ccccc5)C4)cc3)cc2N=C(N)C1` (centres unmarked) [Compound 1.9, 2-amino-8-(4-(3-hydroxy-3-phenylpyrrolidine-1-carbonyl)phenyl)-N,N-dipropyl-3H-benzo[b]azepine-4-carboxamide] stands 50 to 500 nM; under `CCCN(CCC)C(=O)C1=Cc2ccc(-c3ccc(C(=O)N4CCCC4c4ccccc4)cc3)cc2N=C(N)C1` (centres unmarked) [Compound 1.10, 2-amino-8-(4-(2-phenylpyrrolidine-1-carbonyl)phenyl)-N,N-dipropyl-3H-benzo[b]azepine-4-carboxamide], 50 to 500 nM.
Under `CCCN(CCC)C(=O)C1=Cc2ccc(-c3ccc(C(=O)N4CCCC4CO)cc3)cc2N=C(N)C1` (centres unmarked) [Compound 1.11, 2-amino-8-(4-(2-(hydroxymethyl)pyrrolidine-1-carbonyl)phenyl)-N,N-dipropyl-3H-benzo[b]azepine-4-carboxamide] stands 50 to 500 nM.
